Laboratory results reported in patent US11530385B2, “Hormone responsive tissue culture system and uses thereof” (Whitehead Institute for Biomedical Research, priority 2007, dated 2022).

Experiments:
BPEC cells = assay: in vitro growth inhibition by estrogen antagonist, BPEC cells; type: cell-based, human; settings: data not shown
From the text: (§1) Expression of CK18 and BER-Ep4 both confirm the adenocarcinoma features and exclude a squamous tumor. E-cadherin excludes a mesenchymal tumor. BPLER xenografts express progesterone receptor, which is consistent with the notion that BPLER xenografts are hormone-responsive. This was confirmed by experiments in which estrogen-progesterone treatment of mice increased subject tumor size approximately two-fold compared to untreated mice. […] Similar tumor xenografts from cells cultured in the MEGM media was negative for progesterone receptor expression and the in vitro growth inhibition of the cells with ICI 182,780 was less than 20% (data not shown).

BPE cells = assay: in vitro growth inhibition by estrogen antagonist, BPE cells; type: cell-based, human; settings: data not shown
From the text: as §1

BPLE cells = assay: in vitro growth inhibition by estrogen antagonist, BPLE cells; type: cell-based, human; settings: data not shown
From the text: as §1

[1] = test system: cells cultured in the MEGM media; assay: in vitro growth inhibition by estrogen antagonist, cells cultured in the MEGM media; type: cell-based, human; settings: data not shown
From the text: as §1

BPLER xenograft tumors = assay: hormone responsiveness of BPLER xenograft tumors in mice; type: in vivo; settings: estrogen treated animals
From the text: In one respect, the histology of tumors arising from BPLER is very similar, if not identical to human ductal breast carcinoma. There is prominent luminal marker CK18 expression in BPLER cells and tumors. There is also prominent expression of E-cadherin, a marker indicating polarization of cells. Morphology wise, BPLER xenografts form glandular structures similar to those seen in human tumors. BPLER xenografts into mammary fat pads are invasive into adjacent skeletal muscle, and cause a desmoplastic reaction. BPLER xenografts also express progesterone receptors based on immunohistological staining of xenograft tumor samples. In addition, BPLER tumor sizes respond to estrogen treatment, in that xenograft tumors weighed about 70-100% more in estrogen treated animals than in control animals. BPLER tumors spread within the breast tissue of mice, and the multifocal growth is consistent with lymphovascular invasion and spread of tumors. […]
Analysis of tumorigenicity and metastasis: Single-cell suspensions were prepared in a WIT:Matrigel (1:1) mixture and injected in 25 μL (orthotopic) and 100 μl (subcutaneous) volumes. […] Metastasis to lungs and other tissues was analyzed initially under a dissecting microscope (Leica) in fresh tissues, followed by microscopic examination of hematoxylin-eosin and immunostained sections of formalin-fixed and paraffin-embedded tissues. […]

With `C[C@]12CC[C@@H]3c4ccc(O)cc4C[C@@H](CCCCCCCCC[S+]([O-])CCCC(F)(F)C(F)(F)F)[C@H]3[C@@H]1CC[C@@H]2O` (some centres unmarked) [ICI 182,780] the growth inhibition (BPEC cells) was > 80%, the growth inhibition (BPE cells) was > 80% and the growth inhibition (BPLE cells) was > 80%. The “in vitro growth inhibition” value [1] was “less than 20%”.

estrogen was tested, and the “xenograft tumor weight increase in treated animals vs control animals” value (BPLER xenograft tumors) was 70-100%.
